Source: PubChem BioAssay AID1918958 (Molecular Pharmacology Branch, DTP, NCI, 2023)

System: NCI-H196 complex spheroid viability
Assay: Anticancer human tumor NCI-H196 cell line growth inhibition [LSD1];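 also: spheroids exposed to agents for 7 days before readout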;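 as to viability, T/C: 100% = DMSO vehicle control viability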
Conditions: for IC50: curve of first compound; for viability, T/C: stronger effect = lower value
Procedure, shortened: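 Complex spheroids of tumor cells with HUVEC and human MSCs, exposed to iadademstat combined with other agents. Each agent tested in half-log steps from near clinical Cmax (else 10 microM top), DMSO ≤0.25%.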

[1] = second compound 0.1 µM, first compound 0.0316 µM
[2] = second compound 0.1 µM, first compound 0.1 µM
[3] = second compound 0.1 µM, first compound 0.316 µM
[4] = second compound 0.1 µM, first compound 1 µM
[5] = second compound 0.316 µM, first compound 0.0316 µM
[6] = second compound 0.316 µM, first compound 0.1 µM
[7] = second compound 0.316 µM, first compound 0.316 µM
[8] = second compound 0.316 µM, first compound 1 µM
[9] = second compound 1 µM, first compound 0.0316 µM
[10] = second compound 1 µM, first compound 0.1 µM
[11] = second compound 1 µM, first compound 0.316 µM
[12] = second compound 1 µM, first compound 1 µM
[13] = second compound 3.16 µM, first compound 0.0316 µM
[14] = second compound 3.16 µM, first compound 0.1 µM
[15] = second compound 3.16 µM, first compound 0.316 µM
[16] = second compound 3.16 µM, first compound 1 µM
[17] = second compound 10 µM, first compound 0.0316 µM
[18] = second compound 10 µM, first compound 0.1 µM
[19] = second compound 10 µM, first compound 0.316 µM
[20] = second compound 10 µM, first compound 1 µM

Structure (SMILES) | IC50 (second compound 0.1 µM) [nM] | IC50 (second compound 0.316 µM) [nM] | IC50 (second compound 1 µM) [nM] | IC50 (second compound 3.16 µM) [nM] | IC50 (second compound 10 µM) [nM] | viability, T/C [1] [%] | viability, T/C [2] [%] | viability, T/C [3] [%] | viability, T/C [4] [%] | viability, T/C [5] [%] | viability, T/C [6] [%] | viability, T/C [7] [%] | viability, T/C [8] [%] | viability, T/C [9] [%] | viability, T/C [10] [%] | viability, T/C [11] [%] | viability, T/C [12] [%] | viability, T/C [13] [%] | viability, T/C [14] [%] | viability, T/C [15] [%] | further results
CC1COCCN1c1cc(-c2ccnn2C)c2ccnc(-c3ccn[nH]3)c2n1 (stereo not given) + NC1CCC(NC2CC2c2ccccc2)CC1 | 296 | 366 | 310 | 771 | 266 | 80 | 58.1 | 54.1 | 44.2 | 75.2 | 59.8 | 51.7 | 47.1 | 74.2 | 57.7 | 51.8 | 47.6 | 69.9 | 60.1 | 53.9 | viability, T/C (second compound 0.1 µM, first compound 0.00316 µM): 84.7%; viability, T/C (second compound 0.1 µM, first compound 0.01 µM): 84.3%; viability, T/C (second compound 0.316 µM, first compound 0.00316 µM): 81%; viability, T/C (second compound 0.316 µM, first compound 0.01 µM): 86.4%; viability, T/C (second compound 1 µM, first compound 0.00316 µM): 73.6%; viability, T/C (second compound 1 µM, first compound 0.01 µM): 78.7%; viability, T/C (second compound 3.16 µM, first compound 0.00316 µM): 88%; viability, T/C (second compound 3.16 µM, first compound 0.01 µM): 82.6%; viability, T/C [16]: 48.5%; viability, T/C (second compound 10 µM, first compound 0.00316 µM): 86.7%; viability, T/C (second compound 10 µM, first compound 0.01 µM): 78.8%; viability, T/C [17]: 74.5%; viability, T/C [18]: 56.2%; viability, T/C [19]: 49%; viability, T/C [20]: 46.5%
CC1COCCN1c1cc(C2(S(C)(=N)=O)CC2)nc(-c2ccnc3[nH]ccc23)n1 (stereo not given) + NC1CCC(NC2CC2c2ccccc2)CC1 | > 10000 | > 10000 | > 10000 | > 10000 | > 10000 | 95.7 | 100 | 99 | 87.5 | 101 | 99.5 | 110 | 89.5 | 101 | 96.4 | 95.5 | 85.8 | 97.4 | 100 | 93.7 | viability, T/C (second compound 0.1 µM, first compound 3.16 µM): 89%; viability, T/C (second compound 0.1 µM, first compound 10 µM): 67.4%; viability, T/C (second compound 0.316 µM, first compound 3.16 µM): 88.3%; viability, T/C (second compound 0.316 µM, first compound 10 µM): 70.8%; viability, T/C (second compound 1 µM, first compound 3.16 µM): 79.5%; viability, T/C (second compound 1 µM, first compound 10 µM): 72.2%; viability, T/C [16]: 85.5%; viability, T/C (second compound 3.16 µM, first compound 3.16 µM): 79.5%; viability, T/C (second compound 3.16 µM, first compound 10 µM): 70.2%; viability, T/C [17]: 96.9%; viability, T/C [18]: 108%; viability, T/C [19]: 100%; viability, T/C [20]: 98%; viability, T/C (second compound 10 µM, first compound 3.16 µM): 77.3%; viability, T/C (second compound 10 µM, first compound 10 µM): 68.2%
